# Starred links: 1 amine or outer side, 2 acyl side, 3 side chain; linkers in the order of their positions; H or OH if unused. Positions of bridges follow the written chain, without caps; N, C: chain ends. Non-standard residues stand in square brackets, D forms with d. Residues, ends and D or L forms follow the SMILES beside them. No end group written: not given here. *: point of attachment. hTyr(3S-OH,4S-OH,3'-OSO3H) = N[C@H](C(=O)O)[C@H](O)[C@@H](O)c1ccc(O)c(OS(=O)(=O)O)c1; Orn(4R-OH,5R-OH) = O=C([C@H](C[C@@H](O)[C@@H](O)N[*:3])N[*:1])[*:2]; Pro(3S-OH,4S-Me) = C[C@H]1CN[C@H](C(=O)O)[C@H]1O; X1 = CCCCCOc1ccc(-c2cc(-c3ccc(C(=O)*)cc3)no2)cc1; Gln(3R-OH) = NC(=O)C[C@@H](O)[C@H](N)C(=O)O; Hyp = O=C(O)[C@@H]1C[C@@H](O)CN1; pS = N[C@@H](COP(=O)(O)O)C(=O)O
# What was measured:
# hCdc14A^1-413 = molecular target: T1, hCdc14A^1-413 (Homo sapiens, UniProt Q9UNH5); details: n = 3
# T1 construct: gene CDC14A
# Protocol: (§1) Data from velocity versus substrate concentration plots were fit with the Michaelis–Menten equation in GraphPad Prism (https://www.graphpad.com/) to determine steady-state kinetic parameters kcat and KM. For trans peptide stimulation assays, DiFMUP was used at a single concentration well above the measured KM for each enzyme. […] (where pS is phosphoSer), were assayed in Cdc14 reaction buffer with Biomol Green (Enzo Life Science) detection of released inorganic phosphate as previously described ([29]). Data were fit with a modified Michaelis–Menten equation including a substrate inhibition term in Prism.
# (§2) B, initial velocities as a function of increasing DiFMUP concentration were measured under steady-state conditions for the indicated ScCdc14 variants. […] Data are average values from at least three independent measurements. Error bars are SDs. Lines are best fits for the Michaelis–Menten equation. C, to better visualize differences in KM, all Vmax values from data in panel A were normalized to 1. […] E, a representative presteady-state reaction progress graph for reaction of the indicated ScCdc14 enzyme variants with 200 μM DiFMUP, measured in a stopped flow spectrofluorometer. Data were fit with Equation 1 (see Experimental procedures) to generate rates of the burst phase (kburst) of the reaction. […]
# hCdc14A^Q395A = molecular target: T2, hCdc14A^Q395A (Homo sapiens, UniProt Q9UNH5, Q395A); details: n = 3
# T2 construct: gene CDC14A
# Protocol: as §1, §2
# hCdc14A^3A [1] = molecular target: T3, hCdc14A^3A (Homo sapiens, UniProt Q9UNH5, L399A/R400A/K403A); details: n = 3
# T3 construct: gene CDC14A
# Protocol: as §1, §2
# [2] = tested on: C. albicans cdc14^S411A and cdc14^S411E strains; experiment: Agar plate patch assay, C. albicans cdc14 mutant strains; details: colonies arising from cdc14^S411A and cdc14^S411E strains; YPD + 50 ng/ml micafungin
# Protocol: Values are means of at least six independent measurements and error bars are SDs. […] E, agar plate patch assay with the indicated Candida albicans strains on YPD or YPD + 50 ng/ml micafungin. Plates were incubated at 30 °C for 72 h prior to imaging. Images in panels D and E are representative of multiple experiments performed with three independent isolates of the Ala and Glu mutant strains.
# S. cerevisiae and C. albicans cultures were grown in yeast extract/peptone/dextrose (YPD) medium (10 g/l yeast extract, 20 g/l peptone, and 20 g/l glucose) at 30 °C with shaking at 225 rpm. C. albicans strains were supplemented with 8 μg/ml uridine. […] Agar was added to 20% (w/v) for growth on solid medium. […] For C. albicans patch assays, single colonies were resuspended in 100 μl PBS and spread on YPD agar plates ± 50 ng/ml micafungin.
# ScCdc14^1-374 = experiment: Trans stimulation of ScCdc14^1-374 by synthetic SLiCE peptides; format: biochemical, Saccharomyces cerevisiae; details: for trans stimulation, interchangeability test: 2 mM peptide, 10 μM DiFMUP, 50 nM ScCdc14^1-374, versus unstimulated
# hCdc14A^3A [3] = experiment: Trans stimulation of hCdc14A^3A by synthetic SLiCE peptides; details: for trans stimulation, interchangeability test: 2 mM peptide, 100 μM DiFMUP, 10 nM hCdc14A^3A, versus unstimulated; for stimulation of activity: near-saturating DiFMUP (300 μM), pH 7.5, 30 °C
# Protocol: (§3) B, same as panel A with WT hCdc14A that contains a functional SLiCE motif. […] All reactions contained 200 μM peptide substrate and were run for 30 min. […] Data are means of six measurements and error bars are SDs. D, same as panel C with hCdc14A enzyme at 1 μM for human SLiCE substrate and 100 nM for yeast SLiCE and Acm1pS3 substrates. E, peptide stimulation assays using 10 μM DiFMUP as substrate were conducted as in Figures 3A and 6A with ScCdc14^1-374 (50 nM) and 2 mM each stimulating peptide. F, same as panel E with hCdc14A^3A (10 nM) using 100 μM DiFMUP.
# (§4) For trans peptide stimulation assays, DiFMUP was used at a single concentration well above the measured KM for each enzyme. […] (where pS is phosphoSer), were assayed in Cdc14 reaction buffer with Biomol Green (Enzo Life Science) detection of released inorganic phosphate as previously described ([29]). Data were fit with a modified Michaelis–Menten equation including a substrate inhibition term in Prism.
# ScCdc14^1-449 = ScCdc14^1-449 (Saccharomyces cerevisiae, UniProt Q00684); experiment: Dephosphorylation of SLiCE phosphopeptides by ScCdc14^1-449; details: 200 μM peptide, 30 min; enzyme 50 nM (yeast SLiCE), 1 μM (human SLiCE), 25 nM (Acm1pS3); mean of six
# Protocol: as §3, §4
# WT hCdc14A = experiment: Trans stimulation of WT hCdc14A by synthetic SLiCE peptides; details: near-saturating DiFMUP (300 μM), pH 7.5, 30 °C
# Protocol: as §3, §4
# hCdc14A [4] = experiment: Inhibition of hCdc14A activity toward DiFMUP (not shown); format: biochemical, human
# ScCdc14 = experiment: Inhibition of ScCdc14 activity toward DiFMUP (not shown); format: biochemical, Saccharomyces cerevisiae
# hCdc14A [5] = experiment: Dephosphorylation of SLiCE phosphopeptides by hCdc14A; details: 200 μM peptide, 30 min; enzyme 1 μM (human SLiCE), 100 nM (yeast SLiCE and Acm1pS3); mean of six
# Protocol: as §3, §4
# Chain of ScCdc14^1-449 (Q00684 1-449): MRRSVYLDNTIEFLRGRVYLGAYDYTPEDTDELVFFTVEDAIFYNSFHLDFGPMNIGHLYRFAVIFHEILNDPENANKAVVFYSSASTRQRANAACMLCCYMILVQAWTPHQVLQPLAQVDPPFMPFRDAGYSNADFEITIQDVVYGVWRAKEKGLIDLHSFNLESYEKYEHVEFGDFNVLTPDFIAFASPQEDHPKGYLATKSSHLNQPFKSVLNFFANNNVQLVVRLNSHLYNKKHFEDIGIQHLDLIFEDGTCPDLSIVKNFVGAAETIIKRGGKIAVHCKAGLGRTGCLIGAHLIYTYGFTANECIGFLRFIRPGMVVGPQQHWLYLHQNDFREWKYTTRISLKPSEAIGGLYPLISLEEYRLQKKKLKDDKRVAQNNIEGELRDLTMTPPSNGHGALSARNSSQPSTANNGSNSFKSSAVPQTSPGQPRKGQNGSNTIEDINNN
# T3 sequence (Q9UNH5 1-413 L399A/R400A/K403A): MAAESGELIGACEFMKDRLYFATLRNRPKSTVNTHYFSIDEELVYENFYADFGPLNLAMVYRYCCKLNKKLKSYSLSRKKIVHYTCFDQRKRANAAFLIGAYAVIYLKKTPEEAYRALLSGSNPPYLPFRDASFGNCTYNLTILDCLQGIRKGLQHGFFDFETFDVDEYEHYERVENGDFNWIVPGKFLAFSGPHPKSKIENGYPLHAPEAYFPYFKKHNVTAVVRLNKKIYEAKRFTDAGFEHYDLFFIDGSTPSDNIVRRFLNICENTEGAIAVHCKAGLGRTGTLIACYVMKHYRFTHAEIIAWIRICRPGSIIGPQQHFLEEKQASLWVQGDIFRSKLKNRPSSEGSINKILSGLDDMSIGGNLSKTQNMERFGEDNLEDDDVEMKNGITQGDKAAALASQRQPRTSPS
# T2 sequence (Q9UNH5 1-413 Q395A): as the sequence (Q9UNH5 1-413 L399A/R400A/K403A) above, with Q395A, A399L, A400R, A403K counted along it
# T1 sequence (Q9UNH5 1-413): as the sequence (Q9UNH5 1-413 L399A/R400A/K403A) above, with A399L, A400R, A403K counted along it
compound,measurement,setting,value
Cc1cc(=O)oc2c(F)c(OP(=O)(O)O)c(F)cc12 [DiFMUP],Km,hCdc14A^1-413,24 µM
same,Km,hCdc14A^Q395A,2.6 µM
same,Km,hCdc14A^3A [1],0.52 µM
"CCCCCOc1ccc(-c2cc(-c3ccc(C(=O)N[C@H]4C[C@@H](O)[C@@H](O)NC(=O)[C@@H]5[C@@H](O)[C@@H](C)CN5C(=O)[C@H]([C@H](O)CC(N)=O)NC(=O)[C@H]([C@H](O)[C@@H](O)c5ccc(O)c(OS(=O)(=O)O)c5)NC(=O)[C@@H]5C[C@@H](O)CN5C(=O)[C@H]([C@@H](C)O)NC4=O)cc3)no2)cc1 [micafungin] (X1-[Orn(4R-OH,5R-OH)]T[Hyp][hTyr(3S-OH,4S-OH,3'-OSO3H)][Gln(3R-OH)][Pro(3S-OH,4S-Me)]; lactam 1-C)",sensitivity of sporadic faster growing colonies,[2],resistant
QTSPGQPRKGQN [yeast SLiCE peptide],"trans stimulation, interchangeability test",ScCdc14^1-374,only able to significantly stimulate ScCdc14
same,stimulation of catalytic rate,"ScCdc14^1-374; near-saturating DiFMUP (60 μM), pH 7.5, 30 °C, normalized to no added peptide, at least three independent measurements",dose-dependent stimulation
same,"trans stimulation, interchangeability test",hCdc14A^3A [3],no effect on hCdc14A activity
QTSPG[pS]PRKGQN [yeast SLiCE phosphopeptide],dephosphorylation as substrate,ScCdc14^1-449,"excellent Cdc14 substrate for both ScCdc14 and hCdc14A, almost as reactive as the optimal Acm1pS3 phosphopeptide"
TAGDKLRALKSQR [Q395A peptide],stimulation of activity,hCdc14A^3A [3],little effect on activity of either enzyme
same,stimulation of activity,WT hCdc14A,little effect on activity of either enzyme
TQGDKAAALASQR [3A peptide],stimulation of activity,hCdc14A^3A [3],little effect on activity of either enzyme
same,stimulation of activity,WT hCdc14A,little effect on activity of either enzyme
TQGDKLRALKSQR [human SLiCE peptide],"trans stimulation, interchangeability test",ScCdc14^1-374,failed to significantly stimulate ScCdc14
same,"trans stimulation, interchangeability test",hCdc14A^3A [3],strongly stimulating hCdc14A
same,stimulation of activity,hCdc14A^3A [3],strongly stimulated activity
same,stimulation of activity,WT hCdc14A,relatively small effect
"T[pS]GDKLRALKSQR [human SLiCE phosphopeptide, T(pS)… where pS is phosphoserine]",inhibition of activity toward DiFMUP,hCdc14A [4],unable to detect any inhibition
same,inhibition of activity toward DiFMUP,ScCdc14,unable to detect any inhibition
same,dephosphorylation as substrate,hCdc14A [5],could not be dephosphorylated
same,dephosphorylation as substrate,ScCdc14^1-449,could not be dephosphorylated

# From article PMC11407943, “Cdc14 phosphatases use an intramolecular pseudosubstrate motif to stimulate and regulate catalysis” (The Journal of Biological Chemistry, 2024)
